Measurements: patent US5962493A, “2-mercaptobenzimidazole derivatives and antihyperlipemic agent or antiarteriosclerotic agent containing the same” (priority 1997, dated 1999)

Columns and labels:
Acute Toxicity Test = test: Acute Toxicity Test; set-up: species or system mouse (8-week ddy); details: mouse, in vivo; oral, 0.5% Tween 80 suspension, six 8-week ddy mice, observed for one month
Excerpt: The compound (2) was suspended in 0.5% Tween 80 solution.
The compound I-7 was suspended in 0.5% Tween 80 solution.

[1] = system: mouse peritoneal macrophage; details: Table 1; dose 5 μM; microscopic observation
total blood cholesterol = test: Effect of reducing blood lipid of rabbit having high-cholesterol feed; format: in vivo, rabbit (male New Zealand white); details: 30 mg/kg/day mixed with high-cholesterol food, 14 days; based on the control; group of three rabbits
Experimental: (2) Effect of reducing blood lipid of rabit having high-cholesterol feed:
A high-cholesterol food (100 g/day/rabbit: ORC-4 of Oriental Yeast Co., Ltd. +0.5% cholesterol +0.5% olive oil) was given to each of male New Zealand white rabbits weighing about 2 kg for seven days to make them suffer from hypercholesterolemia.
In the next stage, the high-cholesterol food was still given to the rabbits and, in addition, 30 mg/kg/day/rabbit of the test compound (2) was continuously given in the form of a mixture thereof with the food to a group of three rabbits (test group) for 14 days. On the other hand, only the same high-cholesterol food as above was given in the equal dose to another group of three rabbits (control group).
After the continuous feeding for 14 days followed by fasting for one day, a small amount of the blood was taken from the parotid vein to determine the total blood cholesterol (latripo TC: a product of latron Co. Ltd.).

[2] = system: mouse peritoneal macrophage; test: In vitro tests on inhibition of foaming of macrophage with mouse peritoneal macrophage (cholesteryl ester formation); format: cell-based, mouse (female ICR); details: Table 1, ratio to control, 16 hours at 37° C., read-out: CE (%) (cholesteryl ester-forming rate, ratio to the control)
Experimental: (1) In vitro tests on inhibition of foaming of macrophage with mouse peritoneal macrophage:
The necks of 15-week old female ICR mice (Japan SLC) were cut off. After blood-letting, Hanks buffer solution (Nissui Seiyaku Co., Ltd.) was injected into the abdominal cavity of each mouse. The abdomen was massaged and then the buffer solution was rapidly recovered, centrifuged at 1000 rotations for 5 minutes to collect the peritoneal macrophages. The peritoneal macrophases thus collected were then suspended in GIT medium (Wako Pure Chemical Industries, Ltd.), and the suspension was spread on a 24-hole microplate. After the cultivation at 37° C. in 5% CO2 for 2 hours, the medium was replaced with a Dulbecoo Modified Eagle's MEM medium (Nissui Seiyaku Co., Ltd.). After the cultivation at 37° C. in 5% CO2 for additional 16 hours, the following substances were added in the following order:
(1) subject: dissolved in DMSO (Wako Pure Chemical Industries, Ltd.)
PC: phosphatidyl choline (a product of Funakoshi)
PS: phosphatidyl serine (ditto)
DCP: dicetyl phosphate (ditto)
CHOL.: cholesterol (Sigma).
After further cultivation at 37° C. in 5% CO2 for 16 hours, the lipid fraction was extracted with chloroform and methanol. The lipid fraction thus extracted was dissolved in isopropyl alcohol, and the formed cholesteryl ester (CE) was determined by an enzymatic coloring method. The cholesteryl ester-forming rate of each compound was calculated in terms of the ratio thereof to the control. The cytotoxicity was examined by microscopic observation of the shape of the cell.
The pharmacological effects of the compounds given in Table 2 were evaluated in the same manner as that of Example 3.

With `c1ccc2[nH]c(SCCCCCSc3nc4ccccc4[nH]3)nc2c1` [Compound I-7, 1,5-bis(2-benzimidazoylthio)pentane] the LD50 at 730 h (Acute Toxicity Test) was at least 5000 mg/kg.

For `CCC(=O)n1c(SCCOCCSc2nc3ccccc3n2C(=O)CC)nc2ccccc21` [Compound (2)], the Cytotoxicity [1] was “none”, the “total blood cholesterol decreasing rate” value (total blood cholesterol) was 25% and the LD50 at 730 h (Acute Toxicity Test) was at least 5000 mg/kg. For the same compound, the activity at 5 µM [2] was 7%.

With `Cc1ccc2[nH]c(SCCOCCSc3nc4cc(C)ccc4[nH]3)nc2c1` [Compound (11)] the Cytotoxicity [1] was “none” and the activity at 5 µM [2] was 38%.
